Several values for one entry are separate records, joined by “and”; a condition that tells them apart may be missing. Equal entries are not always repeated. Where two headings read alike, the source gives them in different places.
Key:
[1] = target: T1, peripheral benzodiazepine binding site (Rattus norvegicus, UniProt P16257); experiment: In vitro binding, [3H]-PK11195, kidney membrane preparation; conditions: [3H]-PK11195 (2 nM), 4° C., 1 h
T1 construct: diluted kidney membrane preparation (200 μg); from tissue; host or cells: kidney membrane preparation
Procedure: Non-specific binding was determined with PK11195 (10 μM).
(§1) Non-specific binding was determined with Flumazenil (20 μM). In both cases, incubations were terminated by rapid filtration through Whatman GF/B glass fibre. Filters were immediately washed 3 times with 5 mL ice-cold 50 mM Tris/HCl at pH 7.4. Filters were counted in a β-scintillation counter (Packard) to measure the amount of bound radioactivity. The IC50 of the compounds for the peripheral benzodiazepine binding site and the central benzodiazepine receptor were calculated using Kell 6 software.

[2] = target: central benzodiazepine receptors; experiment: In vitro binding, [3H]-Flumazenil, brain cortex membrane preparation; conditions: [3H]-Flumazenil (2 nM), 25° C., 45 min, read-out: CBR IC50
Procedure: as §1

[3] = Biodistribution of 18F-labelled tracers in rats; assay type: in vivo; conditions: SD rats; for Biodistribution: Adrenals / Biodistribution: Bladder / Biodistribution: Blood / Biodistribution: Bone / Biodistribution: Brain / Biodistribution: GIT / Biodistribution: Heart / Biodistribution: Kidney / Biodistribution: Liver / Biodistribution: Lungs / Biodistribution: Muscle / Biodistribution: Olfactory bulbs / Biodistribution: Pancreas / Biodistribution: Skin / Biodistribution: Spleen / Biodistribution: Stomach / Biodistribution: Testes / Biodistribution: Thymus / Biodistribution: Thyroid: decay correction not stated
Procedure: [^18F]Fluoride, in the form of H^18F, was produced by the ^18O(p,n)^18F nuclear reaction by bombardment of ^18O-enriched water target. The aqueous [^18F]fluoride solution was added to a 2.5-mL wheaton vial containing dry acetonitrile (1 mL), Kryptofix 2.2.2 (5 mg, 13.3 μmol) and potassium carbonate (2 mg, 14.5 μmol). The solvent was evaporated under a stream of nitrogen at 90° C. with a reducing vacuum. This azeotropic drying was repeated twice by further addition of acetonitrile (2×1 mL). The tosylate precursor 2-(2-(4-(2-tosylethoxy)phenyl)-6-chloroimidazo[1,2-a]pyridin-3-yl)-N,N-diethylacetamide (2 mg, 3.6 μmol) was dissolved in acetonitrile (1 ml) and added to the dried K222.K2CO3.KF complex. Stirring and heating at 90° C. continued for 10 to 15 mins before the reaction mixture was diluted with mobile phase and purified by reverse phase HPLC on an Alltech Alltima, C18, 10μ, 250×22 mm column eluting at 10 mLs/min with 45% acetonitrile, 55% water with 0.1% TFA.
The biodistribution of PBR132* was undertaken in SD rats and analysis up to 4 h p.i. in the brain and peripheral tissues was performed. The specificity and selectivity of the tracer were assessed by pre-treatment with PBR and Central benzodiazepine receptor (CBR) specific ligands (1 mg/kg) 5 min prior to injection of PBR132*.
The biodistribution of PBR 147* was performed in SD rats and brain and peripheral tissues were analysised at 15, 30 min, 1, and 4 h p.i. The specificity and selectivity of the tracer was assessed by pre-treatment of the animals with the PBR ligands PK11195 and Ro 5-4864 and with Flumazenil for CBR at 1 mg/kg 5 min prior to injection of PBR 147*
The biodistribution of PBR102* and PBR111* were performed in SD rats and brain and peripheral tissues analysed at 15, 30 min, 1, and 4 h p.i. The specificity and selectivity of the tracers were assessed by pre-treatment with the PBR ligands PK11195 and Ro 5-4864 and with Flumazenil for CBR at 1 mg/kg 5 min prior to injection of the corresponding tracers.
The specificity and selectivity of the tracers were assessed by pre-treatment with the PBR ligands PK11195 and Ro 5-4864 and with Flumazenil for CBR at 1 mg/kg 5 min prior to injection of the corresponding tracers.

For “2-(6-chloro-2-(4-methoxyphenyl)imidazo[1,2-b]pyridazin-3-yl)-N,N-diethylacetamide [PBR 133]”, the IC50 ([1]; read-out: PBR IC50) was 32 nM, the IC50 [2] was 18.8 nM and the “LogP HPLC” value (LogP HPLC; HPLC) was 2.35 ± 0.07.

`CCN(CC)C(=O)Cc1c(-c2ccc(C(C)(C)C)cc2)nc2ccc(F)nn12` [Compound 1, reference compound] showed an IC50 ([1]; PBR IC50 (nM)) of 29 nM and an IC50 [2] of 340 nM.

In the case of `CCN(CC)C(=O)Cc1c(-c2ccc(OCCF)cc2)nn2c(C)cc(C)nc12` [PBR099, 2-(2-(4-(2-fluoroethoxy)phenyl)-5,7-dimethylpyrazolo[1,5-a]pyrimidin-3-yl)-N,N-diethylacetamide], the IC50 [2] is reported as over 5000 nM, the chromatographic logP (LogP HPLC) is reported as 2.54 ± 0.08 and the “Biodistribution: Adrenals” value ([3]; 15 min) is reported as 5.64 ± 0.53 % ID/g. The “Biodistribution: Bladder” value ([3]; 15 min) was 0.46 ± 0.18 % ID/g, the “Biodistribution: Blood” value ([3]; 15 min) was 0.23 ± 0.03 % ID/g and the “Biodistribution: Bone” value ([3]; 15 min) was 0.64 ± 0.03 % ID/g. For the same compound, the “Biodistribution: Brain” value ([3]; 15 min) was 0.21 ± 0.01 % ID/g, the “Biodistribution: GIT” value ([3]; 15 min) was 0.83 ± 0.09 % ID/g and the “Biodistribution: Heart” value ([3]; 15 min) was 5.86 ± 0.44 % ID/g. For the same compound, the “Biodistribution: Kidney” value ([3]; 15 min) was 3.9 % ID/g and 3.85 ± 0.24 % ID/g, the “Biodistribution: Liver” value ([3]; 15 min) was 0.63 ± 0.06 % ID/g and the “Biodistribution: Lungs” value ([3]; 15 min) was 14.55 ± 1.35 % ID/g. For the same compound, the “Biodistribution: Muscle” value ([3]; 15 min) was 0.65 ± 0.14 % ID/g, the “Biodistribution: Olfactory bulbs” value ([3]; 15 min) was 0.35 % ID/g and 0.35 ± 0.03 % ID/g and the “Biodistribution: Pancreas” value ([3]; 15 min) was 1.70 ± 0.13 % ID/g. For the same compound, the “Biodistribution: Skin” value ([3]; 15 min) was 0.35 ± 0.04 % ID/g, the “Biodistribution: Spleen” value ([3]; 15 min) was 4.60 ± 0.29 % ID/g and the “Biodistribution: Stomach” value ([3]; 15 min) was 0.45 ± 0.18 % ID/g. The “Biodistribution: Testes” value ([3]; 15 min) was 0.184 ± 0.006 % ID/g, the “Biodistribution: Thymus” value ([3]; 15 min) was 0.62 ± 0.17 % ID/g and the “Biodistribution: Thyroid” value ([3]; 15 min) was 6.94 ± 1.04 % ID/g. For the same compound, the “Biodistribution: Adrenals” value ([3]; 30 min) was 6.6 % ID/g and 6.56 ± 1.20 % ID/g, the “Biodistribution: Bladder” value ([3]; 30 min) was 0.42 ± 0.08 % ID/g and the “Biodistribution: Blood” value ([3]; 30 min) was 0.16 ± 0.01 % ID/g. The “Biodistribution: Bone” value ([3]; 30 min) was 0.70 ± 0.02 % ID/g, the “Biodistribution: Brain” value ([3]; 30 min) was 0.14 ± 0.01 % ID/g and the “Biodistribution: GIT” value ([3]; 30 min) was 0.90 ± 0.03 % ID/g. The “Biodistribution: Heart” value ([3]; 30 min) was 5.59 ± 0.26 % ID/g, the “Biodistribution: Kidney” value ([3]; 30 min) was 3.62 ± 0.53 % ID/g and the “Biodistribution: Liver” value ([3]; 30 min) was 0.54 ± 0.18 % ID/g. The “Biodistribution: Lungs” value ([3]; 30 min) was 8.82 ± 0.53 % ID/g, the “Biodistribution: Muscle” value ([3]; 30 min) was 0.55 ± 0.03 % ID/g and the “Biodistribution: Olfactory bulbs” value ([3]; 30 min) was 0.28 ± 0.03 % ID/g. The “Biodistribution: Pancreas” value ([3]; 30 min) was 1.33 ± 0.16 % ID/g, the “Biodistribution: Skin” value ([3]; 30 min) was 0.49 ± 0.02 % ID/g and the “Biodistribution: Spleen” value ([3]; 30 min) was 4.71 ± 0.61 % ID/g. The “Biodistribution: Stomach” value ([3]; 30 min) was 0.32 ± 0.04 % ID/g, the “Biodistribution: Testes” value ([3]; 30 min) was 0.209 ± 0.007 % ID/g and the “Biodistribution: Thymus” value ([3]; 30 min) was 0.66 ± 0.14 % ID/g. The “Biodistribution: Thyroid” value ([3]; 30 min) was 7.99 ± 1.83 % ID/g, the “Biodistribution: Adrenals” value ([3]; 60 min) was 7.82 ± 1.73 % ID/g and the “Biodistribution: Bladder” value ([3]; 60 min) was 0.72 ± 0.17 % ID/g. The “Biodistribution: Blood” value ([3]; 60 min) was 0.14 ± 0.01 % ID/g, the “Biodistribution: Bone” value ([3]; 60 min) was 0.79 ± 0.03 % ID/g and the “Biodistribution: Brain” value ([3]; 60 min) was 0.13 ± 0.02 % ID/g. For the same compound, the “Biodistribution: GIT” value ([3]; 60 min) was 1.31 ± 0.08 % ID/g, the “Biodistribution: Heart” value ([3]; 60 min) was 6.45 ± 0.43 % ID/g and the “Biodistribution: Kidney” value ([3]; 60 min) was 3.53 ± 0.24 % ID/g. The “Biodistribution: Liver” value ([3]; 60 min) was 0.40 ± 0.05 % ID/g, the “Biodistribution: Lungs” value ([3]; 60 min) was 5.66 ± 0.56 % ID/g and the “Biodistribution: Muscle” value ([3]; 60 min) was 0.43 ± 0.02 % ID/g. For the same compound, the “Biodistribution: Olfactory bulbs” value ([3]; 60 min) was 0.29 ± 0.03 % ID/g, the “Biodistribution: Pancreas” value ([3]; 60 min) was 1.08 ± 0.19 % ID/g and the “Biodistribution: Skin” value ([3]; 60 min) was 0.48 ± 0.04 % ID/g. The “Biodistribution: Spleen” value ([3]; 60 min) was 4.51 ± 0.70 % ID/g, the “Biodistribution: Stomach” value ([3]; 60 min) was 0.41 ± 0.09 % ID/g and the “Biodistribution: Testes” value ([3]; 60 min) was 0.266 ± 0.019 % ID/g. For the same compound, the “Biodistribution: Thymus” value ([3]; 60 min) was 0.77 ± 0.12 % ID/g, the “Biodistribution: Thyroid” value ([3]; 60 min) was 9.90 ± 3.67 % ID/g and the “Biodistribution: Bladder” value ([3]; 4 hours) was 0.80 ± 0.11 % ID/g. For the same compound, the “Biodistribution: Blood” value ([3]; 4 hours) was 0.16 ± 0.01 % ID/g, the “Biodistribution: Bone” value ([3]; 4 hours) was 1.0 % ID/g and 1.07 ± 0.05 % ID/g and the “Biodistribution: Brain” value ([3]; 4 hours) was 0.15 ± 0.01 % ID/g. The “Biodistribution: GIT” value ([3]; 4 hours) was 1.90 ± 0.09 % ID/g, the “Biodistribution: Heart” value ([3]; 4 hours) was 4.29 ± 0.86 % ID/g and the “Biodistribution: Kidney” value ([3]; 4 hours) was 2.4 % ID/g and 2.41 ± 0.40 % ID/g. The “Biodistribution: Liver” value ([3]; 4 hours) was 0.29 ± 0.04 % ID/g, the “Biodistribution: Lungs” value ([3]; 4 hours) was 2.80 ± 0.51 % ID/g and the “Biodistribution: Muscle” value ([3]; 4 hours) was 0.30 ± 0.05 % ID/g. For the same compound, the “Biodistribution: Olfactory bulbs” value ([3]; 4 hours) was 0.31 % ID/g and 0.31 ± 0.05 % ID/g, the “Biodistribution: Pancreas” value ([3]; 4 hours) was 0.56 ± 0.09 % ID/g and the “Biodistribution: Skin” value ([3]; 4 hours) was 0.65 ± 0.05 % ID/g. For the same compound, the “Biodistribution: Spleen” value ([3]; 4 hours) was 2.88 ± 0.56 % ID/g, the “Biodistribution: Stomach” value ([3]; 4 hours) was 0.79 ± 0.16 % ID/g and the “Biodistribution: Testes” value ([3]; 4 hours) was 0.349 ± 0.011 % ID/g. The “Biodistribution: Thymus” value ([3]; 4 hours) was 0.91 ± 0.05 % ID/g, the “Biodistribution: Thyroid” value ([3]; 4 hours) was 7.97 ± 1.37 % ID/g and the “Blood activity level / concentration in the blood over the 4 h study period” value ([3]; throughout 15 min to 4 h) was 0.23%.

Compound `CCCN(CCC)C(=O)Cc1c(-c2ccc(OCCF)cc2)nc2ccc(Cl)cn12` [PBR103, 2-(2-(4-(2-fluoroethoxy)phenyl)-6-chloroimidazo[1,2-a]pyridin-3-yl)-N,N-dipropylacetamide] has an IC50 ([1]; PBR IC50 (nM)) of 51.3 nM, an IC50 [2] of 1840 nM and a chromatographic logP (LogP HPLC) of 3.44 ± 0.11.

Compound `O=C(Cc1c(-c2ccc(OCCF)cc2)nc2ccc(Cl)cn12)N1CCCC1` [PBR104, 2-(2-(4-(2-fluoroethoxy)phenyl)-6-chloroimidazo[1,2-a]pyridin-3-yl)-1-(pyrrolidin-1-yl)ethanone] has an IC50 ([1]; PBR IC50 (nM)) of 575 nM, an IC50 [2] of 1640 nM and a chromatographic logP (LogP HPLC) of 2.45 ± 0.08.

With `CN(C)C(=O)Cc1c(-c2ccc(OCCF)cc2)nc2ccc(Cl)cn12` [PBR105, 2-(2-(4-(2-fluoroethoxy)phenyl)-6-chloroimidazo[1,2-a]pyridin-3-yl)-N,N-dimethylacetamide] the IC50 ([1]; PBR IC50 (nM)) was 675 nM, the IC50 [2] was 1760 nM and the chromatographic logP (LogP HPLC) was 2.04 ± 0.06.
